Results as given in patent publication US20240294519A1, “PYRROLO[2,3-b]PYRIDINE PGDH INHIBITORS AND METHODS OF MAKING AND USING” (EPIRIUM BIO INC., priority 2021, published 2024).

The molecules below were run against T1, 15-PGDH/HPGD (Homo sapiens, UniProt P15428) (assay: hPGDH inhibitor screening biochemical assay). Conditions: 10 nM enzyme, 15 μM PGE2, 0.25 mM NAD, fluorescence ex/em 340/485 nm.
T1 construct: purchased R&D System 5660-DH
T1 sequence (P15428 1-266): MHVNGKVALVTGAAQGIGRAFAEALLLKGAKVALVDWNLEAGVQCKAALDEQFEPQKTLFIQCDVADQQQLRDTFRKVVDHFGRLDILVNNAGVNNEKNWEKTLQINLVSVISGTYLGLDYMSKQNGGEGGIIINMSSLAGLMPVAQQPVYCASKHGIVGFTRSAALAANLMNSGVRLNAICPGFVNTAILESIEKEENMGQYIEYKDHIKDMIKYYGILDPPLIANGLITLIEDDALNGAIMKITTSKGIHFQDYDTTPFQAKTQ
Experimental: A hydroxyprostaglandin dehydrogenase inhibition screening biochemical assay can be performed to assess the synthesized inhibitors provided herein. Provided herein is an exemplary biochemical assay for hPGDH inhibitor screening.
The in vitro biochemical assay can be performed in white, 384 plates in total 20 μl reaction volume consisting of 10 nM of 15-PGDH/HPGD (R&D System #5660-DH), 15 μM Prostaglandin E2 (Sigma, C8 t #P5640-10 MG) and 0.25 mM β-Nicotinamide adenine dinucleotide sodium salt (Sigma, C8 t #N0632-5G) made in reaction buffer (50 mM Tris-HCl, pH 7.5, 0.01% Tween 20) at 10-point dose response curve for test/tool compounds. Briefly, 5 μl (4×) of compounds solution and 5 μl (final concentration, 10 nM) of enzyme solution is added to white 384 well plates and incubated for 10 mins at 37° C. 5 μl (4×) of […] and 5 μl (4×) of β-Nicotinamide adenine dinucleotide sodium salt is added to the wells and incubated for 10 mins at room temperature. Fluorescence is recorded at ex/em=340 nm/485 nm. The percentage (%) inhibition of enzyme activity was determined relative to positive control (1% DMSO) and IC50 was calculated using GraphPad prism software (four parameter-variable slope equation).

CC1(C)CCN(C(=O)c2cnc3c(ccn3-c3ccc(-c4ncn[nH]4)nc3)c2)C1 [Compound B-42] and C[C@H]1CCN(C(=O)c2cnc3c(ccn3-c3ccc(-c4ncn[nH]4)nc3)c2)C1 [Compound B-41] cannot be ordered by IC50: < 100 nM for the first, < 100 nM for the second.

CC1CCCN(C(=O)c2cnc3c(ccn3-c3ccc(C#N)cc3)c2)C1 (stereo in doubt) [Compound B-10, (R)-4-(5-(3-methylpiperidine-1-carbonyl)-1H-pyrrolo[2,3-b1 pyridin-1-yl)benzonitrile] and C[C@@H]1CCCN(C(=O)c2cnc3c(ccn3-c3ccc(C(=O)O)cc3)c2)C1 [Compound B-3] cannot be ordered by IC50: < 100 nM for the first, < 100 nM for the second.

CCOC(=O)Nc1cncc(-n2ccc3cc(C(=O)N4CCCC(F)(F)C4)cnc32)c1 [Compound B-55] and CCOC(=O)Nc1cncc(-n2ccc3cc(C(=O)N4CCCC(C(F)(F)F)C4)cnc32)c1 (stereo not drawn) [Compound B-238] cannot be ordered by IC50: < 100 nM for the first, < 100 nM for the second.

Cc1nnc(-c2ccc(-n3ccc4cc(C(=O)N5CCC(F)(F)CC5)cnc43)cn2)[nH]1 [Compound B-21, (4,4-difluoropiperidin-1-yl)(1-(6-(5-methyl-4H-1,2,4-triazol-3-yl)pyridin-3-yl)-1H-pyrrolo[2,3-b]pyridin-5-yl)methanone] and Cc1[nH]nnc1-c1ccc(-n2ccc3cc(C(=O)N4CCC(F)(F)CC4)cnc32)cn1 [Compound B-19, (4,4-difluoropiperidin-1-yl)(1-(6-(5-methyl-1H-1,2,3-triazol-4-yl)pyridin-3-yl)-1H-pyrrolo[2,3-b]pyridin-5-yl)methanone] cannot be ordered by IC50: < 100 nM for the first, < 100 nM for the second.

C[C@H]1CCCN(C(=O)c2cnc3c(ccn3-c3cccc(-c4nc[nH]n4)c3)c2)C1 [Compound B-37, (S)-(1-(3-(1H-1,2,4-triazol-3-yl)phenyl)-1H-pyrrolo[2,3-b]pyridin-5-yl)(3-methylpiperidin-1-yl)methanone] and C[C@H]1CCCN(C(=O)c2cnc3c(ccn3-c3ccc(-c4nc[nH]n4)cc3)c2)C1 [Compound B-33, (S)-(1-(4-(1H-1,2,4-triazol-3-yl)phenyl)-1H-pyrrolo[2,3-b]pyridin-5-yl)(3-methylpiperidin-1-yl)methanone] cannot be ordered by IC50: < 100 nM for the first, < 100 nM for the second.

C[C@]1(O)CCCN(C(=O)c2cnc3c(ccn3-c3cccc(-c4nnc[nH]4)c3)c2)C1 [Compound B-249] and C[C@@]1(O)CCCN(C(=O)c2cnc3c(ccn3-c3cccc(-c4nnc[nH]4)c3)c2)C1 [Compound B-244] cannot be ordered by IC50: < 100 nM for the first, < 100 nM for the second.

Nc1nnc(-c2ccc(-n3ccc4cc(C(=O)N5CCC(F)(F)CC5)cnc43)cc2)[nH]1 [Compound B-78, (1-(4-(5-amino-4H-1,2,4-triazol-3-yl)phenyl)-1H-pyrrolo[2,3-b]pyridin-5-yl)(4,4-difluoropiperidin-1-yl)methanone] and Cc1nnc(-c2ccc(-n3ccc4cc(C(=O)N5CCC(F)(F)CC5)cnc43)cc2)[nH]1 [Compound B-74] cannot be ordered by IC50: < 100 nM for the first, < 100 nM for the second.

First: COC(=O)Nc1cncc(-n2ccc3cc(C(=O)N4CCC[C@H](C(F)(F)F)C4)cnc32)c1 [Compound B-65]
Second: O=C(c1cnc2c(ccn2-c2cnn(CC(F)(F)F)c2)c1)N1CCCC(C(F)(F)F)C1 (stereo not drawn) [Compound B-59]
The IC50 of the first is lower: < 100 nM for the first, 100 to 1000 nM for the second.

C[C@H]1CCCN(C(=O)c2cnc3c(ccn3-c3ccc(N4CCNC4=O)nc3)c2)C1 [Compound B-30] and C[C@@H]1CN(C(=O)c2cnc3c(ccn3-c3ccc(N4CCOC4=O)nc3)c2)CCC1(F)F [Compound B-75] cannot be ordered by IC50: < 100 nM for the first, < 100 nM for the second.

CC(C)(C)Nc1nc(-c2cncc(-n3ccc4cc(C(=O)N5CCC(F)(F)CC5)cnc43)c2)no1 [Compound B-20, (1-(5-(5-(tert-butylamino)-1,2,4-oxadiazol-3-yl)pyridin-3-yl)-1H-pyrrolo[2,3-b]pyridin-5-yl)(4,4-difluoropiperidin-1-yl)methanone] and O=C(c1cnc2c(ccn2-c2cncc(-c3n[nH]c(C4CC4)n3)c2)c1)N1CCC(F)(F)CC1 [Compound B-1, (1-(5-(5-cyclopropyl-1H-1,2,4-triazol-3-yl)pyridin-3-yl)-1H-pyrrolo [2,3-b]pyridin-5-yl)(4,4-difluoropiperidin-1-yl)methanone] cannot be ordered by IC50: < 100 nM for the first, < 100 nM for the second.

N=C(NN)c1ccc(-n2ccc3cc(C(=O)N4CCC(F)(F)CC4)cnc32)cn1 [Compound B-48, 5-(5-(4,4-difluoropiperidine-1-carbonyl)-1H-pyrrolo[2,3-b]pyridin-1-yl) picolinimidohydrazide] and NC(=O)c1ccc(-n2ccc3cc(C(=O)N4CCC(F)(F)CC4)cnc32)cn1 [Compound B-104] cannot be ordered by IC50: < 100 nM for the first, < 100 nM for the second.

C[C@H]1CCN(C(=O)c2cnc3c(ccn3-c3ccc(C(=O)O)cc3)c2)C1 [Compound B-7] and C[C@H]1CCCN(C(=O)c2cnc3c(ccn3-c3ccc4nc(N)nn4c3)c2)C1 [Compound B-29] cannot be ordered by IC50: < 100 nM for the first, < 100 nM for the second.

CO[C@H]1CCCN(C(=O)c2cnc3c(ccn3-c3ccc(-c4nnc[nH]4)c(Cl)c3)c2)C1 [Compound B-252] and CO[C@H]1CCCN(C(=O)c2cnc3c(ccn3-c3ccc(-c4nnc[nH]4)c(F)c3)c2)C1 [Compound B-247] cannot be ordered by IC50: < 100 nM for the first, < 100 nM for the second.

CN(C)c1nnc(-c2ccc(-n3ccc4cc(C(=O)N5CCC(F)(F)CC5)cnc43)cc2)[nH]1 [Compound B-77] and CC(C)c1nnc(-c2ccc(-n3ccc4cc(C(=O)N5CCC(F)(F)CC5)cnc43)cc2)[nH]1 [Compound B-58] cannot be ordered by IC50: < 100 nM for the first, < 100 nM for the second.

C[C@H]1CCCN(C(=O)c2cnc3c(ccn3-c3ccc(-c4nc[nH]n4)cn3)c2)C1 [Compound B-35, (S)-(1-(5-(4H-1,2,4-triazol-3-yl)pyridin-2-yl)-1H-pyrrolo[2,3-b]pyridin-5-yl)(3-methylpiperidin-1-yl)methanone] and O=C(c1cnc2c(ccn2-c2ccc(-c3nnc[nH]3)cc2)c1)N1CCC[C@@H](C(F)(F)F)C1 [Compound B-228] cannot be ordered by IC50: < 100 nM for the first, < 100 nM for the second.

CC1(O)CCCN(C(=O)c2cnc3c(ccn3-c3cc(Cl)cc(-c4nnc[nH]4)c3)c2)C1 (stereo not drawn) [Compound B-240] and CC1(O)CCCN(C(=O)c2cnc3c(ccn3-c3cc(F)cc(-c4nnc[nH]4)c3)c2)C1 (stereo not drawn) [Compound B-241] cannot be ordered by IC50: < 100 nM for the first, < 100 nM for the second.

Compared with O=C(c1cnc2c(ccn2-c2cnn(C3CCOCC3)c2)c1)N1CCC(F)(F)CC1 [Compound B-94], COCCn1cc(-n2ccc3cc(C(=O)N4CCC(F)(F)CC4)cnc32)cn1 [Compound B-62] is higher in IC50: < 100 nM for the first, 100 to 1000 nM for the second.

Cc1cnc(-c2cncc(-n3ccc4cc(C(=O)N5CCC(F)(F)CC5)cnc43)c2)[nH]1 [Compound B-14] and Nc1nnc(-c2cccc(-n3ccc4cc(C(=O)N5CCC(F)(F)CC5)cnc43)c2)[nH]1 [Compound B-71] cannot be ordered by IC50: < 100 nM for the first, < 100 nM for the second.

CO[C@H]1CCCN(C(=O)c2cnc3c(ccn3-c3cc(Cl)cc(-c4nnc[nH]4)c3)c2)C1 [Compound B-250] and CO[C@H]1CCCN(C(=O)c2cnc3c(ccn3-c3cc(F)cc(-c4nnc[nH]4)c3)c2)C1 [Compound B-242] cannot be ordered by IC50: < 100 nM for the first, < 100 nM for the second.

C[C@]1(O)CCCN(C(=O)c2cnc3c(ccn3-c3ccc(-c4nnc[nH]4)cc3)c2)C1 [Compound B-248] and O=C(c1cnc2c(ccn2-c2ccc(-c3nnc[nH]3)cc2)c1)N1CCC(F)(F)CC1 [Compound B-26, (1-(4-(1H-1,2,4-triazol-5-yl)phenyl)-1H-pyrrolo[2,3-b]pyridin-5-yl)(4,4-difluoropiperidin-1-yl)methanone] cannot be ordered by IC50: < 100 nM for the first, < 100 nM for the second.

O=C(c1cnc2c(ccn2-c2ccc(-c3cn[nH]c3)cc2)c1)N1CCC(F)(F)CC1 [Compound B-233] and Cc1nc(-c2ccc(-n3ccc4cc(C(=O)N5CCC(F)(F)CC5)cnc43)cn2)c[nH]1 [Compound B-16, (4,4-difluoropiperidin-1-yl)(1-(6-(2-methyl-1H-imidazol-4-yl)pyridin-3-yl)-1H-pyrrolo[2,3-b]pyridin-5-yl)methanone] cannot be ordered by IC50: < 100 nM for the first, < 100 nM for the second.

N#Cc1cc(-c2nnc[nH]2)cc(-n2ccc3cc(C(=O)N4CCC(F)(F)CC4)cnc32)c1 [Compound B-274] and N#Cc1cc(-n2ccc3cc(C(=O)N4CCC(F)(F)CC4)cnc32)ccc1-c1nnc[nH]1 [Compound B-273] cannot be ordered by IC50: < 100 nM for the first, < 100 nM for the second.

CN1CCN(c2ccc(-n3ccc4cc(C(=O)N5CCC(F)(F)CC5)cnc43)cn2)C1=O [Compound B-91] and O=C(O)c1ccc(-n2ccc3cc(C(=O)N4CCC(F)(F)CC4)cnc32)cc1F [Compound B-27, 4-(5-(4,4-difluoropiperidine-1-carbonyl)-1H-pyrrolo[2,3-b]pyridin-1-yl)-2-fluorobenzoic acid] cannot be ordered by IC50: < 100 nM for the first, < 100 nM for the second.

CCOC(=O)Nc1cncc(-n2ccc3cc([S+]([O-])C4CCCC4)cnc32)c1 (stereo not drawn) [Compound B-316] and COc1ccc(Cn2cc(-c3cncc(-n4ccc5cc(C(=O)N6CCC(F)(F)CC6)cnc54)c3)nc2C)cc1 [Compound B-23, (4,4-difluoropiperidin-1-yl)(1-(5-(1-(4-methoxybenzyl)-2-methyl-1H-imidazol-4-yl)pyridin-3-yl)-1H-pyrrolo [2,3-b]pyridin-5-yl)methanone] cannot be ordered by IC50: < 100 nM for the first, < 100 nM for the second.
